What was measured:
[1] = tested on: HuH7 cells; assay: AFP production in HuH7 cells after exposure to FGFR inhibitor; format: cell-based, human; conditions: HuH7, 0, 1, 5 and 10 μM (FIG. 15)
Procedure: (§1) Supernatants from the respective FGF19 stimulation and siRNA experiments were subjected to AFP ELISA assay using the DELFIA hAFP kit (Perkin Elmer, Boston, Mass.), performed according to manufacturer's protocol. The readout was converted to concentration (ng/mL) using the standard curve derived from the solutions provided in the kit. AFP production by the cells was subsequently normalized to the number of cells in each well. The cell number was determined by ATP bioluminescence Cell-Titer Glo assay (Promega, Madison, Wis.) using protocol as described by the manufacturer.

[2] = tested on: HEK293; assay: Viability of non-cancerous cell line HEK293 exposed to FGFR inhibitor; format: cell-based; conditions: non-cancerous cell line HEK293, data not shown
[3] = tested on: HuH7; assay: Viability of HCC cell lines (HuH7) exposed to FGFR inhibitor; format: cell-based, human
[4] = target: T1, FGFR4 (Homo sapiens, UniProt P22455); assay: FGF19 ligand stimulation, AFP ELISA, HepG2; format: cell-based; design: endogenous in cells; conditions: HepG2, 50 and 100 ng/ml FGF19 (FIG. 12)
Procedure: (§2) HepG2 or HuH7 cells were seeded into 96-well plates and allowed to attach overnight. They were serum-starved for 24 h before addition of heparin. Two hours later, FGF19 (R&D Systems, Minneapolis, Minn., 50-100 ng/mL final concentration) was administered. After 8 hours, aliquots of the supernatant were harvested for AFP ELISA assay as described below. Similar FGF19 stimulations were performed in 10 cm dishes for immunoblot detection of phospho-FRS2α.
as §1

[5] = target: T1, FGFR4; assay: FGF19 ligand stimulation, AFP ELISA, HuH7; format: cell-based; design: stimulation of FGFR4 in the HCC cell line HuH7 using 50 and 100 ng/ml of the specific ligand FGF19; endogenous in cells; host or cells: HuH7
Procedure: as §2, §1

T1 sequence (P22455 22-802): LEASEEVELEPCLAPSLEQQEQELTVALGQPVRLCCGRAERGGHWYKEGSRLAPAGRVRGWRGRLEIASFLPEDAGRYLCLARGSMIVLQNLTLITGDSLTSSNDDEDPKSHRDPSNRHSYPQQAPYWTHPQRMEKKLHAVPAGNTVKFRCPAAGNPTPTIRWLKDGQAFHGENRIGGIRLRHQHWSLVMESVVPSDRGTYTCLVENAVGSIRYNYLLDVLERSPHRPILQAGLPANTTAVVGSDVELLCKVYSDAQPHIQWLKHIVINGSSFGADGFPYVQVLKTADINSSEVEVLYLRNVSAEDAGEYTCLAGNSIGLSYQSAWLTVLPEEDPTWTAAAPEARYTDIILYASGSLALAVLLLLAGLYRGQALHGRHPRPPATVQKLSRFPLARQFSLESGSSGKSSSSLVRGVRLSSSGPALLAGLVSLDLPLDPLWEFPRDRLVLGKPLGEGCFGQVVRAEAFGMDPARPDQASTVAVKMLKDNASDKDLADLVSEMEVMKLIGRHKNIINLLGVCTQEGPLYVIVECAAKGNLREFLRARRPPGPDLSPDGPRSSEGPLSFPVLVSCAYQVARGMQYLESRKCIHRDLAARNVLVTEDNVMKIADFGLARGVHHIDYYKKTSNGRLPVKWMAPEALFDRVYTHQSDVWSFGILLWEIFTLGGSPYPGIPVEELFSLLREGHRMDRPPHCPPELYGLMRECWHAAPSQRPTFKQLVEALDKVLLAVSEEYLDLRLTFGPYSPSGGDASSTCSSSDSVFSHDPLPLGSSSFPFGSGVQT

| AFP production [4] | AFP production ([5]; HCC cell lines (FIG. 11, FIG. 12)) | AFP production ([5]; HuH7, 50 and 100 ng/ml FGF19 (FIG. 11)) | Compound | AFP production [1] | LD50 [2] | anti-proliferative effect ([3]; HCC cell lines vs. non-cancerous cell line HEK293) | anti-proliferative effect (viability) ([3]; HuH7 (FIG. 16)) |
| --- | --- | --- | --- | --- | --- | --- | --- |
|  |  |  | CCN(CC)CCCCNc1ncc2cc(-c3cc(OC)cc(OC)c3)c(NC(=O)NC(C)(C)C)nc2n1 [PD173074] | blocks AFP production | > 50 µM | exquisite anti-proliferative effect | exquisite anti-proliferative effect |
| elevated AFP production | elevated AFP production | elevated AFP production | FGF19: specific ligand used for stimulation of FGFR4 (R&D Systems) |  |  |  |  |

Source: patent US20110008347A1, “CANCER-RELATED PROTEIN KINASES” (Agency for Science ,Technology and Research, priority 2006, published 2011)
